Test results: patent US5948792A, “Fluorine-containing 1,4-disubstituted piperidine derivatives” (Banyu Pharmaceutical Co., Ltd., priority 1996, dated 1999)

Legend:
Muscarinic M3 receptor [1] = target: T1, Muscarinic M3 receptor (Homo sapiens, UniProt P20309); experiment: Inhibition of binding of [3H]-N-methylscopolamine to muscarinic M3 receptor; details: for Ki: CHO cell membranes expressing cloned human receptor, 0.2 nM [3H]-N-methylscopolamine, pH 7.4, 2 hours, 25° C, read-out: Ki M3 (inhibitory effects on binding to muscarinic M3 receptor); for M2/M3 (ratio of binding Ki): selectivity ratio of Ki values
T1 construct: purchased Receptor Biology, Inc; host or cells: CHO cells (membranes)
Experimental: (§1) Tests on Inhibition of Binding to Muscarinic Receptors
(§2) These tests were performed according to a modification of the method of Hargreaves et al. (Br. J. Pharmacol. 107: 494-501, 1992). Membranes from CHO cells expressing cloned human m1-m5 (Receptor Biology, Inc.) were incubated with 0.2 nM [^3 H]-N-methylscopolamine and each a compound of the present invention to be tested in 0.5 ml of 50 mM Tris-HCl-10 mM MgCl2 -1 mM EDTA (pH 7.4) for 2 hours at 25° C. Free and membrane-bound [^3 H]-N-methylscopolamine were separated by filtration over glass filters (UniFilter-GF/C; Packard Instruments Co., Inc.) using cell harvester (Filtermate™ 196; Packard Instruments Co., Inc.). Then the filter was washed four times with 1 ml of ice-cold Tris-HCl (pH 7.4) and dried at 50° C. After adding a scintillator (Microscinti 0; Packard Instruments Co., Inc.), the radioactivity was counted by a liquid scintillation counter (TopCount™; Packard Instruments Co., Inc.). Non-specific binding was measured in the presence of 1 μM N-methylscopolamine.

Muscarinic M2 receptor = target: T2, Muscarinic M2 receptor (Homo sapiens, UniProt P08172); experiment: Inhibition of binding of [3H]-N-methylscopolamine to muscarinic M2 receptor; details: CHO cell membranes expressing cloned human receptor; 0.2 nM [3H]-N-methylscopolamine, pH 7.4, 2 hours, 25° C; read-out: Ki M2 (inhibitory effects on binding to muscarinic M2 receptor)
T2 construct: purchased Receptor Biology, Inc; host or cells: CHO cells (membranes)
T2 sequence (P08172 1-466): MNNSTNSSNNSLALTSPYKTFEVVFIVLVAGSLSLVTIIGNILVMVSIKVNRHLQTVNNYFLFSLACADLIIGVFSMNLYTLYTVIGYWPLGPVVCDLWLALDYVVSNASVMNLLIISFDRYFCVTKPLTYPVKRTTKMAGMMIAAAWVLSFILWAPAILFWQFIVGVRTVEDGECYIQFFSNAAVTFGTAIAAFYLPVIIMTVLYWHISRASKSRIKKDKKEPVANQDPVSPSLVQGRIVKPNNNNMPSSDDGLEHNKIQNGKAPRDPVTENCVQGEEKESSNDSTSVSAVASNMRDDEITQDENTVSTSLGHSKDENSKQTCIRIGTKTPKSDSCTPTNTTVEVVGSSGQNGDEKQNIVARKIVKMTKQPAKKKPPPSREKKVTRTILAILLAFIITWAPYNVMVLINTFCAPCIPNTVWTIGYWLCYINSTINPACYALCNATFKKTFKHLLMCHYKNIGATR
Experimental: as §1, §2

airway M3 receptor = target: T3, airway M3 receptor (Rattus norvegicus, UniProt P08483); experiment: Antagonism to the airway M3 receptor in an isolated rat trachea (in vitro); assay type: cell-based
T3 construct: the trachea was isolated; from tissue; host or cells: isolated trachea of male SD strain rat
Experimental: (§3) Tests for Antagonism to Muscarinic Receptors (in vitro)
2) Tests for Antagonism to the Airway M3 Receptor in an Isolated Rat Trachea
These tests were performed according to a conventional method. A male SD strain rat (weighing 300-500 g) was killed by exsanguination, and the trachea was isolated. Annular segments (2 mm wide) were cut out from the trachea and cut transversely at the anterior cartilage part to make open ring preparation. A preparation was suspended in a Magnus tube filled with 5 ml of Krebs-Henseleit solution (gassed with 95% O2 -5% CO2 and kept at 32° C.) with an initial tension of 1.0 g and a resting tension of 0.6 g. The tension of the preparation was recorded isometrically. After being equilibrated for an hour, the preparation was made to contract twice by treatment with 10^-4 M carbachol, and the second contraction induced by carbachol was used as the reference contraction. After the preparation was washed with fresh solution to be restored to the base line, a test compound was administered thereto (or no treatment was given). Ten minutes later, carbachol (10^-8 to 10^-3 M) was cumulatively administered in three-fold increasing doses to obtain a dose-response curve. The dose-response curve was plotted by expressing responses as percentages based on the reference contraction of the preparation as 100%. The antagonistic potency (K^B value) of the test compound was determined from the degree of shift of the dose-response curve obtained by treatment with the test compound.

Muscarinic M3 Receptor [2] = target: T4, Muscarinic M3 Receptor (Rattus norvegicus, UniProt P08483); experiment: Bronchodilation in rats (i.v.), inhibition of acetylcholine-induced increase in airway resistance; assay type: in vivo; details: iv, 5 min, acetylcholine 50 μg/kg i.v. 5 minutes after test compound, read-out: Inhibition of Airway Contraction ED50 iv
T4 construct: male rats of the Sprague-Dawley strain; from tissue; host or cells: airways of living male Sprague-Dawley rats (in vivo)
Experimental: Tests for Antagonism Against Muscarinic M3 Receptor (in vivo)
1-A) Tests for Bronchodilation in Rats (i.v.).
Eight- to eleven-weeks-old male rats of the Sprague-Dawley strain, weighing 380-420 g, were anesthetized with urethane (750 mg/kg. i.p.) and α-chloralose (37.5 mg/kg, i.p.). The bronchus of each rat was intubated, and the right jugular vein was cannulated for drug administration. […] To evoke an increase in airway resistance, acetylcholine (50 μg/kg, i.v.) was administered to the animals. The acetylcholine-induced airway resistance increase was measured 5 minutes before and 5 minutes after administration of test compound, and the ratio of the airway resistance of the latter to the former was calculated. In controls, isotonic sodium chloride solution was used in place of the test compounds and otherwise identical procedures were repeated, the calculated ratio being set to be 100%.

M2 receptor = target: T5, M2 receptor (Rattus norvegicus, UniProt P10980); experiment: Antagonism to M2 receptor in an isolated rat right atrium (in vitro); assay type: cell-based; details: carbachol-induced decrease in heart rate
T5 construct: the right atrium was isolated; from tissue; host or cells: isolated right atrium of male SD strain rat
T5 sequence (P10980 1-466): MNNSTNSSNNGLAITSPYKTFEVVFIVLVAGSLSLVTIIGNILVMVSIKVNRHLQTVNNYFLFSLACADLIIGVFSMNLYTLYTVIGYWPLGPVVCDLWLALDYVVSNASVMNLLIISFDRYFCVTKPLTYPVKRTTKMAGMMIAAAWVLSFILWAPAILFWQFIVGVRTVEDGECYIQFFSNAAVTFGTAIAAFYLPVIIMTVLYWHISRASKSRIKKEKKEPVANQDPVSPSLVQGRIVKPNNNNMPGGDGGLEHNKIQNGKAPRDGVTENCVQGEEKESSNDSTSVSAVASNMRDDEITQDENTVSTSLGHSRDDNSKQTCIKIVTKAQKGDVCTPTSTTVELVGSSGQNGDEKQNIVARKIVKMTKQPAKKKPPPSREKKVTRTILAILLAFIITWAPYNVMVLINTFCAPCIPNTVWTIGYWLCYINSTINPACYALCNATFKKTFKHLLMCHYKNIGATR
Experimental: as §3
1) Tests for Antagonism to M2 receptor in an Isolated Rat Right Atrium
These tests were performed according to a conventional method. A male SD strain rat (weighing 300-500 g) was killed by exsanguination, and the right atrium was isolated. This preparation was isometrically suspended in organ bath filled with 20 ml of Krebs-Henseleit solution (gassed with 95% O2 -5% CO2 and kept at 32° C.) with an initial tension of 0.5 g. The heart rate was recorded with a heart rate counter. After the preparation was equilibrated for 30 minutes, carbachol (10^-9 to 10^-6 M) was cumulatively administered in three-fold increasing doses. Thus, a decrease in heart rate was measured to obtain a dose-response curve for the control experiment. After the preparation was washed with fresh solution to restore the heart rate, a test compound was administered thereto. Ten minutes later, carbachol was cumulatively administered again. Responses to carbachol were expressed as percentages based on the heart rate before administration of carbachol as 100%. The antagonistic potency (KB value) of the test compound was determined from the degree of shift of the dose-response curve obtained by treatment with individual test compound of the present invention.

T1 sequence (P20309 whole entry): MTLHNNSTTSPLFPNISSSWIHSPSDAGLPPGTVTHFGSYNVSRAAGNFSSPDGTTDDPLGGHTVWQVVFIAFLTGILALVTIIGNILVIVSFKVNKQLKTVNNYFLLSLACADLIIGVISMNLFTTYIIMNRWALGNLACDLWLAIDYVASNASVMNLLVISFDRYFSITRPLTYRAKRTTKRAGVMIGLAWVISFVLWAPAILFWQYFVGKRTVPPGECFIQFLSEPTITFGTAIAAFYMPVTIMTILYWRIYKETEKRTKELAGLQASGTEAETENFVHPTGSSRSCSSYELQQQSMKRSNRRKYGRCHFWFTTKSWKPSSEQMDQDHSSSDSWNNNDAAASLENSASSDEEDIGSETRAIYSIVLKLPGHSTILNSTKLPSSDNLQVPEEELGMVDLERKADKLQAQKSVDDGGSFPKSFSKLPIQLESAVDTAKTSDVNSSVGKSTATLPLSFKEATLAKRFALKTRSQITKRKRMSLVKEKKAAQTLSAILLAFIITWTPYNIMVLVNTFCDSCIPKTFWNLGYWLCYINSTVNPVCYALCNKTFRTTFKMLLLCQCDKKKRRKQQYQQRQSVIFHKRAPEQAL
T4 sequence (P08483 whole entry): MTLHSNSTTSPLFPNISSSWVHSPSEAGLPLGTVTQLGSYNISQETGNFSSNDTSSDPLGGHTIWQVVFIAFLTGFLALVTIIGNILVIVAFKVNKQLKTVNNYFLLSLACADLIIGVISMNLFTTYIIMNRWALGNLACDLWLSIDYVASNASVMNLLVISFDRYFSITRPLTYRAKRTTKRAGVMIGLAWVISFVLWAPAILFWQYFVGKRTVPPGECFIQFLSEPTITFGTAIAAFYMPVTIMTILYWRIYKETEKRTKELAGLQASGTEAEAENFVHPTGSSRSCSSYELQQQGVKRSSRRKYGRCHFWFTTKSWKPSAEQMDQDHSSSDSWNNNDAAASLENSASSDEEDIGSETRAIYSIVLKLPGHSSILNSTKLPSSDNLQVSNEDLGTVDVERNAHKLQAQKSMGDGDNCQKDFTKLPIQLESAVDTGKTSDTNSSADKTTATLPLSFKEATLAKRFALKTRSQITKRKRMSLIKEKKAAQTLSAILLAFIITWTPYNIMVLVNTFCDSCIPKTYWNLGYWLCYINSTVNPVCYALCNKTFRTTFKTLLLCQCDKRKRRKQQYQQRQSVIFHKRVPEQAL
T3 sequence (P08483 whole entry): as above

| Structure (SMILES) | Ki (Muscarinic M3 receptor [1]) [nM] | M2/M3 (ratio of binding Ki) (Muscarinic M3 receptor [1]) | Ki (Muscarinic M2 receptor) [nM] | Kb (airway M3 receptor; isolated rat trachea, carbachol-induced contraction) [nM] | M2/M3 (ratio of KB) (airway M3 receptor; selectivity ratio of KB values, right atrium M2 / trachea M3) | ED50 (Muscarinic M3 Receptor [2]) [mg/kg] | Kb (M2 receptor) [nM] |
| --- | --- | --- | --- | --- | --- | --- | --- |
| COc1cc(N)nc(CN2CCC(NC(=O)[C@](O)(c3ccccc3)[C@@H]3CCC(F)(F)C3)CC2)c1.Cl.Cl [Example 21, (2R)-N-[1-(6-amino-4-methoxypyridin-2-ylmethyl)piperidin-4-yl]-2-[(1R)-3,3-difluorocyclopentyl]-2-hydroxy-2-phenylacetamide dihydrochloride] | 22 | 2300 | 50000 | – | – | – | – |
| COc1cccc(CN2CCC(NC(=O)[C@](O)(c3ccccc3)[C@@H]3CCC(F)(F)C3)CC2)c1 [Example 15, (2R)-N-[1-(3-methoxybenzyl)piperidin-4-yl]-2-[(1R)-3,3-difluorocyclopentyl]-2hydroxy-2-phenylacetamide] | – | – | 1000 | – | – | – | – |
| Cc1cccc(CN2CCC(NC(=O)[C@](O)(c3ccccc3)[C@@H]3CCC(F)(F)C3)CC2)n1 [Example 10, (2R)-N-[1-(6-methylpyridin-2-ylmethyl)piperidin-4-yl]-2-[(1R)-3,3-difluorocyclopentyl]-2-hydroxy-2-phenylacetamide] | 8.9 | 1900 | 17000 | – | – | – | – |
| Nc1cc(N)cc(CN2CCC(NC(=O)[C@](O)(c3ccccc3)[C@@H]3CCC(F)(F)C3)CC2)c1 [Example 27, (2R)-N-[1-(3,5-diaminobenzyl)piperidin-4-yl]-2-[(1R)-3,3-difluorocyclopentyl]-2-hydroxy-2-phenylacetamide] | 20 | 210 | 4200 | – | – | – | – |
| COc1cc(N)cc(CN2CCC(NC(=O)[C@](O)(c3ccccc3)[C@@H]3CCC(F)(F)C3)CC2)c1.Cl.Cl [Example 31, (2R)-N-[1-(3-amino-5-methoxybenzyl)piperidin-4-yl]-2-[(1R)-3,3-difluorocyclopentyl]-2-hydroxy-2-phenylacetamide dihydrochloride] | 19 | 520 | 10000 | – | – | – | – |
| O=C(NC1CCN(Cc2ccccn2)CC1)[C@](O)(c1ccccc1)[C@@H]1CCC(F)(F)C1 [Example 14, (2R)-N-[1-(2-pyridylmethyl)piperidin-4-yl]-2-[(1R)-3,3-difluorocyclopentyl]-2-hydroxy-2-phenylacetamide] | 10 | 140 | 1400 | – | – | – | – |
| O=C(NC1CCN(Cc2ccoc2)CC1)[C@](O)(c1ccccc1)[C@@H]1CCC(F)(F)C1 [Example 12, (2R)-N-[1-(3-furylmethyl)piperidin-4-yl]-2-[(1R)-3,3-difluorocyclopentyl]-2-hydroxy-2-phenylacetamide] | – | – | 8600 | – | – | – | – |
| CC(C)=CCCN1CCC(NC(=O)[C@](O)(c2ccccc2)[C@@H]2CCC(F)(F)C2)CC1 [Example 1, (2R)-N-[1-(4-methyl-3-pentenyl)piperidin-4-yl]-2-[(1R)-3,3-difluorocyclopentyl]-2-hydroxy-2-phenylacetamide] | 5.5 | 590 | 3200 | 6.3 | 160 | 0.033 | 1000 |
| Cc1cc(N)cc(CN2CCC(NC(=O)[C@](O)(c3ccccc3)[C@@H]3CCC(F)(F)C3)CC2)c1.Cl.Cl [Example 22, (2R)-N-[1-(3-amino-5-methylbenzyl)piperidin-4-yl]-2-[(1R)-3,3-difluorocyclopentyl]-2-hydroxy-2-phenylacetamide dihydrochloride] | 19 | 680 | 13000 | – | – | – | – |
| CN1C2CCC1CC(OC(=O)C(CO)c1ccccc1)C2 (stereo not shown) [atoropine, reference compound] | – | – | – | – | – | 0.0043 | – |
